Test results: the NIST ThermoML archive (doi:10.1016/j.jct.2012.05.010)
± gives the expanded uncertainty stated by the source.

Test: refractive index (Na D-line) (dimensionless)
Details: 293.1 K; 101.33 kPa; Liquid; Standard Abbe refractometry

| Compound | refractive index |
| --- | --- |
| CCCc1ccccc1 [propylbenzene] | 1.4915 ± 0.0004 |
| CCCCn1cc[n+](C)c1.F[P-](F)(F)(F)(F)F [1-butyl-3-methylimidazolium hexafluorophosphate] | 1.3803 ± 0.0005 |
| CCCCCCCCCCCCCC [tetradecane] | 1.4289 ± 0.0004 |
| CCCCCCCCCCCC [dodecane] | 1.422 ± 0.0004 |
